Measurements published in US20110230481A2, “DERIVATIVES OF TETRABROMOBENZIMIDAZOLE, A PROCESS FOR THE PREPARATION THEREOF, A PHARMACEUTICAL COMPOSITION COMPRISING THE SAME, A METHOD OF USING THE SAME, A METHOD FOR MODULATING OR REGULATING SERINE/THREONINE KINASES, AND SERINE/THREONINE KINASES MODULATING AGENT” (SELVITA S.A., priority 2009, published 2011).

Key:
Assay in all cases: KINOMEscan Max
Assay type in all cases: binding
PIK3CD = target: T1, PIK3CD (Homo sapiens, UniProt O00329)
T1 construct: DNA tag (qPCR read-out)
T1 sequence (O00329 whole entry): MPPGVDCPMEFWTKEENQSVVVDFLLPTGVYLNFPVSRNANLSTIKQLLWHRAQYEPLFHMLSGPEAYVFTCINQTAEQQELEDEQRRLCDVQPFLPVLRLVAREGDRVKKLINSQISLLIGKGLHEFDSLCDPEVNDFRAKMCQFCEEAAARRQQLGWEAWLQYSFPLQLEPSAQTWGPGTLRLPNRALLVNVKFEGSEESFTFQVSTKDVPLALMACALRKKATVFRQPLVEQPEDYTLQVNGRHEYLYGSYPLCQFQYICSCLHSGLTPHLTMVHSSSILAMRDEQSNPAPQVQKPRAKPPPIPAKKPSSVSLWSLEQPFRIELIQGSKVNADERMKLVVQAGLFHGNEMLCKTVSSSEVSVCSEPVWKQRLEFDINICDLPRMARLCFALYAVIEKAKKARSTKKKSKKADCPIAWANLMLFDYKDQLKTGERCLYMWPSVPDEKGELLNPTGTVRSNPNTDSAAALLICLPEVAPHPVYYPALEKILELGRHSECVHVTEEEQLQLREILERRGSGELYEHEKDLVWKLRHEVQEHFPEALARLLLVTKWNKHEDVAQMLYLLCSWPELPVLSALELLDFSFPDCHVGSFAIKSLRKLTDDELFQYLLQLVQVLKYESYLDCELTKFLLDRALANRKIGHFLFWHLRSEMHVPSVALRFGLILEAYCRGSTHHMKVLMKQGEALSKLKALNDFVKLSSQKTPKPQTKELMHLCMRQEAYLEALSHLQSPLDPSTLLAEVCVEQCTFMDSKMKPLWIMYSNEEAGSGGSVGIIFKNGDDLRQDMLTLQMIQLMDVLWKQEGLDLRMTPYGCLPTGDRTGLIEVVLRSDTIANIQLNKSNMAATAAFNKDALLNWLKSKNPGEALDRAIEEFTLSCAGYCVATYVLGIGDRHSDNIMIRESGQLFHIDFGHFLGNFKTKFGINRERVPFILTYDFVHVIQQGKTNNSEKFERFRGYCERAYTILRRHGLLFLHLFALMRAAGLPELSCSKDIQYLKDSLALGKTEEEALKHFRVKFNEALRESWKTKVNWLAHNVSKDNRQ
How it was run: (§1)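 Binding was measured by competition: compounds were tested for their ability to displace DNA-tagged kinases from an immobilized ligand directed at the active site, with quantitative PCR of the tag as read-out.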

CAMK1 = target: T2, CAMK1 (Homo sapiens, UniProt Q14012)
T2 construct: purchased Ambit Kinomescan (contract screening)
How it was run: as §1

PHKG2 = PHKG2 (Homo sapiens, UniProt P15735)
How it was run: as §1

EGFR(T790M) = target: T3, EGFR(T790M) (Homo sapiens, UniProt P00533, T790M); conditions: 1 μM
T3 construct: purchased Ambit (KINOMEscan Max panel service)
T3 sequence (P00533 25-1210 T790M): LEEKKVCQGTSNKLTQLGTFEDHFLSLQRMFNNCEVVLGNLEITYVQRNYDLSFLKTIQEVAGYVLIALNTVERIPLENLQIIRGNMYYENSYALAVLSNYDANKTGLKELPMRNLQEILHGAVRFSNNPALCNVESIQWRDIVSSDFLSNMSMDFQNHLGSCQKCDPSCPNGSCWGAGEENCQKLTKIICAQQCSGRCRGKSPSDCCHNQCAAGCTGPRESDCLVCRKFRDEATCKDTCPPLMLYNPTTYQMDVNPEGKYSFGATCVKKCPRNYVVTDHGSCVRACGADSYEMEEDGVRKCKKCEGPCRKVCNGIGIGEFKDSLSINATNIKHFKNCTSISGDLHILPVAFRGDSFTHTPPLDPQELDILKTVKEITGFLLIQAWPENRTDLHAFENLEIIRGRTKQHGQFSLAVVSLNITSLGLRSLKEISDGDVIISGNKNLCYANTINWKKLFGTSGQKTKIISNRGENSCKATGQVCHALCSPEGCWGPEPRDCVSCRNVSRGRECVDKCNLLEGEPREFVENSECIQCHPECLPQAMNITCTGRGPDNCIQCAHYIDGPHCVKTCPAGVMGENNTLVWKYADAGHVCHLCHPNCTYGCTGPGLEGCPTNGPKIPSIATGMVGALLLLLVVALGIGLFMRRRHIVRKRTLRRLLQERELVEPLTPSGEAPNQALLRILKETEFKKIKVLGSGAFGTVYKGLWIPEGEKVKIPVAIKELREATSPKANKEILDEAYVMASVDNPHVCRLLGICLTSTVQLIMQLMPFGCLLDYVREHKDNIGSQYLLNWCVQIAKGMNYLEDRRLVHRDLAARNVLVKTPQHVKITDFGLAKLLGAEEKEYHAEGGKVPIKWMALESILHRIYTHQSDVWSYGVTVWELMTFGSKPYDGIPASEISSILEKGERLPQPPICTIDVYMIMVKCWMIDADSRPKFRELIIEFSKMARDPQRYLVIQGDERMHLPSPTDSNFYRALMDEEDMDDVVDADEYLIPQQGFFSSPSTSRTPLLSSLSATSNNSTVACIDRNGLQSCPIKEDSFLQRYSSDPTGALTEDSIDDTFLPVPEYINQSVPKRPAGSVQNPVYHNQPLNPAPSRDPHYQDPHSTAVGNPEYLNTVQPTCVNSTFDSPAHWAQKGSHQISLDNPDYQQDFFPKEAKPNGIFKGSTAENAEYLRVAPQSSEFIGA
How it was run: as §1

RET(M918T) = target: T4, RET(M918T) (Homo sapiens, UniProt P07949, M918T)
T4 construct: DNA tag (qPCR read-out)
How it was run: as §1

TAOK1 = target: T5, TAOK1 (Homo sapiens, UniProt Q7L7X3)
T5 construct: DNA tag (qPCR read-out)
How it was run: as §1

CSNK1E = target: T6, CSNK1E (Homo sapiens, UniProt P49674)
T6 construct: DNA tag (qPCR read-out)
How it was run: as §1

FRK = target: T7, FRK (Homo sapiens, UniProt P42685)
T7 construct: purchased Ambit Kinomescan (contract panel, KINOMEscan Max)
How it was run: as §1

CDK2 = target: T8, CDK2 (Homo sapiens, UniProt P24941); conditions: 1 μM
T8 construct: purchased Ambit (KINOMEscan Max service)
How it was run: as §1

MEK4 = target: T9, MEK4 (Homo sapiens, UniProt P45985)
T9 construct: purchased Ambit (KINOMEscan Max service)
How it was run: as §1

LATS2 = target: T10, LATS2 (Homo sapiens, UniProt Q9NRM7); conditions: 1 μM
T10 construct: purchased Ambit (KINOMEscan Max service)
How it was run: as §1

PCTK1 = PCTK1 (Homo sapiens, UniProt Q00536)
How it was run: as §1

MRCKA = MRCKA (Homo sapiens, UniProt Q5VT25)
How it was run: as §1

ACVR1 = ACVR1 (Homo sapiens, UniProt Q04771)
How it was run: as §1

[1] = target: T11, RSK3(Kin.Dom.2-C-terminal) (Homo sapiens, UniProt Q15349)
T11 construct: RSK3(Kin.Dom.2-C-terminal); purchased Ambit Kinomescan (contract screening)
T11 sequence (Q15349 415-672 limits assumed): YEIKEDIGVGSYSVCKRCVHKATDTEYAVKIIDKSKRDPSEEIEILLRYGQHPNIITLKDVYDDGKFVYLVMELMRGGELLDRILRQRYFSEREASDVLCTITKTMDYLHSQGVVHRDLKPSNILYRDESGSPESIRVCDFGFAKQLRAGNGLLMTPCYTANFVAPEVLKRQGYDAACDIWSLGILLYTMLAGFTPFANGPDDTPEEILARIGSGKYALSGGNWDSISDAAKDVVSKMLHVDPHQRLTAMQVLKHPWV
How it was run: as §1

SRPK1 = target: T12, SRPK1 (Homo sapiens, UniProt Q96SB4)
T12 construct: purchased Ambit (KINOMEscan Max service)
How it was run: as §1

FYN = target: T13, FYN (Homo sapiens, UniProt P06241)
T13 construct: purchased Ambit Kinomescan (contract panel, KINOMEscan Max)
How it was run: as §1

DMPK = target: T14, DMPK (Homo sapiens, UniProt Q09013)
T14 construct: purchased Ambit (KINOMEscan Max panel service)
T14 sequence (Q09013 whole entry): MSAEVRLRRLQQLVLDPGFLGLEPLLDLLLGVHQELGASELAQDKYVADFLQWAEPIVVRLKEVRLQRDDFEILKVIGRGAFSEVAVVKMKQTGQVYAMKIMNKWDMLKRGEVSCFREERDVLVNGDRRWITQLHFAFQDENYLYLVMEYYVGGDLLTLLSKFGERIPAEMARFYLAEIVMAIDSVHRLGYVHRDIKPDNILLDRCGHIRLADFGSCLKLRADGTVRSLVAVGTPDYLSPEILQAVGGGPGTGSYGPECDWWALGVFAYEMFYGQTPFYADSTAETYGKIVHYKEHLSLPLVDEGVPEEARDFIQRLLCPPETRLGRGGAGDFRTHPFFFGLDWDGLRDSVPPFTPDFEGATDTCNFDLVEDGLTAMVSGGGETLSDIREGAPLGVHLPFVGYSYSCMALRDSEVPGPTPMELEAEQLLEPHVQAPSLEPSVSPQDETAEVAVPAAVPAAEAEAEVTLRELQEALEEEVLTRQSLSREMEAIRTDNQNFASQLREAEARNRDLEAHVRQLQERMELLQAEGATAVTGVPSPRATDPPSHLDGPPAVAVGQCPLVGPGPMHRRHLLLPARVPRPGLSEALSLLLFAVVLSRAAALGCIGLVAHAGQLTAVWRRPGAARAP
How it was run: as §1

TNIK = target: T15, TNIK (Homo sapiens, UniProt Q9UKE5)
T15 construct: purchased Ambit Kinomescan (contract screening service)
How it was run: as §1

EPHA2 = EPHA2 (Homo sapiens, UniProt P29317)
Chain of EPHA2 (P29317 24-976): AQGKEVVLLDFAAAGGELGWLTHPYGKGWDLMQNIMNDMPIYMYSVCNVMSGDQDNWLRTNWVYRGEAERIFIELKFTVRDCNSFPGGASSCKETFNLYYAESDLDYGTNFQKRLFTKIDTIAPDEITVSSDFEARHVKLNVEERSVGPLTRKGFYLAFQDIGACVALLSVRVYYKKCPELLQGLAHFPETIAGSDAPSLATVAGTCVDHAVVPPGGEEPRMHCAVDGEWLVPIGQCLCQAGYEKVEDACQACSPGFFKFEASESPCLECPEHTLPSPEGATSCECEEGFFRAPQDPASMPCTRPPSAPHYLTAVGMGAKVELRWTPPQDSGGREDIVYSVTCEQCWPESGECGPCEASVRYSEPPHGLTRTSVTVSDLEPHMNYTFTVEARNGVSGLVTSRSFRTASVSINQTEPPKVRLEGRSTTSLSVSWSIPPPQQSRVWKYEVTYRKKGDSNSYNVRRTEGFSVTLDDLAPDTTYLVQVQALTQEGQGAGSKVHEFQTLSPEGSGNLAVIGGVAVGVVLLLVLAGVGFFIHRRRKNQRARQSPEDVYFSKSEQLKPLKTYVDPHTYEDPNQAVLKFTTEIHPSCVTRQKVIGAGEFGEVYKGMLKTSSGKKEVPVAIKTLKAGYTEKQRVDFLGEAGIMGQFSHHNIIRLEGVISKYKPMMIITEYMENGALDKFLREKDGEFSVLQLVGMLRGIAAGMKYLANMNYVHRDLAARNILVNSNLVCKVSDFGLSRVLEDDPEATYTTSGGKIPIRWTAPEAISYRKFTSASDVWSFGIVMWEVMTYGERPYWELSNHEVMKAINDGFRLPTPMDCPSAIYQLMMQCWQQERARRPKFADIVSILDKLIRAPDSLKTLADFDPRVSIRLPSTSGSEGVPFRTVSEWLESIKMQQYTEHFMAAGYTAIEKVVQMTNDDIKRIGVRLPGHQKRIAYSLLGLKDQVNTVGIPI
How it was run: as §1

[2] = target: T16, RSK1(Kin.Dom.1-N-terminal) (Homo sapiens, UniProt Q15418)
T16 construct: RSK1(Kin.Dom.1-N-terminal); DNA tag (qPCR read-out)
How it was run: as §1

ADCK3 = ADCK3 (Homo sapiens, UniProt Q8NI60)
How it was run: as §1

PRKR = PRKR (Homo sapiens, UniProt P19525); conditions: 1 μM
How it was run: as §1

DRAK1 = DRAK1 (Homo sapiens, UniProt Q9UEE5)
How it was run: as §1

BMX = target: T17, BMX (Homo sapiens, UniProt P51813)
T17 construct: DNA tag (qPCR read-out)
How it was run: as §1

EPHA7 = target: T18, EPHA7 (Homo sapiens, UniProt Q15375)
T18 construct: purchased Ambit (KINOMEscan Max panel service)
T18 sequence (Q15375 28-998): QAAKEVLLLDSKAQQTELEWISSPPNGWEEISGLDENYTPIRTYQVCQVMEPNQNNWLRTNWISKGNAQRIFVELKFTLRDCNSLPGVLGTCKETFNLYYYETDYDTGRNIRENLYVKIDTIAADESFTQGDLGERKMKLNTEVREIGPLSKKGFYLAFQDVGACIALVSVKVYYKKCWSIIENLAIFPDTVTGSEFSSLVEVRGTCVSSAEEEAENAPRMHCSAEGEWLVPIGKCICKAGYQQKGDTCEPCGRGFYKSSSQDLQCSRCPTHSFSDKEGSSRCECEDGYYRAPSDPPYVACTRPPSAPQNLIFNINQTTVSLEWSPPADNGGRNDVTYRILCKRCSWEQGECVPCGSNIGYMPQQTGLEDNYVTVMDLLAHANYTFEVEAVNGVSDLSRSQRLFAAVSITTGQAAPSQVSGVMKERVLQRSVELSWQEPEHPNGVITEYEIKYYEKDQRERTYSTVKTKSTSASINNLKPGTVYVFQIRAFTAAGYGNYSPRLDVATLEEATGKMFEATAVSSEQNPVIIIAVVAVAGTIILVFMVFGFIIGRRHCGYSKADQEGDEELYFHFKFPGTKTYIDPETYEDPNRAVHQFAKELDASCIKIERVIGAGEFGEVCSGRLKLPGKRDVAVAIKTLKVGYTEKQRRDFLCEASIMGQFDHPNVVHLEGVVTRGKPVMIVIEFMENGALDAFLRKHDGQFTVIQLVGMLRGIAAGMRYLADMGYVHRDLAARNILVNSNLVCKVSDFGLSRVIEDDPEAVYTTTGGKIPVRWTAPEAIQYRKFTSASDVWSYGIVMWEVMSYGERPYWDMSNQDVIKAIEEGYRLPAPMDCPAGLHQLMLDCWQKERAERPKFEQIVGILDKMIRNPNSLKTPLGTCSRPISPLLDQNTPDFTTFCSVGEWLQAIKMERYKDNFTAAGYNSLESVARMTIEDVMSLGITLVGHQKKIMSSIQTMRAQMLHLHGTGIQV
How it was run: as §1

KIT(D816H) = target: T19, KIT(D816H) (Homo sapiens, UniProt P10721, D816H)
T19 construct: purchased Ambit Kinomescan (contract screening)
How it was run: as §1

[3] = target: ABL1(H396P)-phosphorylated (Homo sapiens, UniProt P00519, H396P)
How it was run: as §1

TAOK2 = target: T20, TAOK2 (Homo sapiens, UniProt Q9UL54)
T20 construct: DNA tag (qPCR read-out)
How it was run: as §1

PRKCE = target: T21, PRKCE (Homo sapiens, UniProt Q02156)
T21 construct: DNA tag (qPCR read-out); purchased Ambit Kinomescan
How it was run: as §1

AMPK-alpha1 = target: T22, AMPK-alpha1 (Homo sapiens, UniProt Q13131)
T22 construct: DNA tag (qPCR label); purchased Ambit Kinomescan (contract screening)
How it was run: as §1

DYRK1A = target: T23, DYRK1A (Homo sapiens, UniProt Q13627)
T23 construct: DNA tag (qPCR read-out); purchased Ambit Kinomescan
How it was run: as §1

RIPK2 = target: T24, RIPK2 (Homo sapiens, UniProt O43353)
T24 construct: DNA tag (qPCR read-out)
How it was run: as §1

Work on `NCCCNc1nc2c(Br)c(Br)c(Br)c(Br)c2[nH]1` [Compound 11, N-(3-aminopropyl)-4,5,6,7-tetrabromo-1H-benzo[d]imidazol-2-amine] yielded a remaining binding at 1 µM (PIK3CD) of 100%, a remaining binding at 1 µM (CAMK1) of 98% and a remaining binding at 1 µM (PHKG2) of 75%. For the same compound, the “% binding” value (EGFR(T790M)) was 100%, the remaining binding at 1 µM (RET(M918T)) was 100% and the remaining binding at 1 µM (TAOK1) was 100%. The remaining binding at 1 µM (CSNK1E) was 34%, the remaining binding at 1 µM (FRK) was 100% and the “% binding” value (CDK2) was 71%. For the same compound, the remaining binding at 1 µM (MEK4) was 82%, the “% binding” value (LATS2) was 70% and the remaining binding at 1 µM (PCTK1) was 100%. The remaining binding at 1 µM (MRCKA) was 100%, the remaining binding at 1 µM (ACVR1) was 100% and the remaining binding at 1 µM [1] was 97%. The remaining binding at 1 µM (SRPK1) was 67%, the remaining binding at 1 µM (FYN) was 100% and the remaining binding at 1 µM (DMPK) was 100%. For the same compound, the remaining binding at 1 µM (TNIK) was 100%, the remaining binding at 1 µM (EPHA2) was 92% and the remaining binding at 1 µM [2] was 100%. The remaining binding at 1 µM (ADCK3) was 76%, the “% binding” value (PRKR) was 91% and the remaining binding at 1 µM (DRAK1) was 75%. The remaining binding at 1 µM (BMX) was 88%, the remaining binding at 1 µM (EPHA7) was 100% and the remaining binding at 1 µM (KIT(D816H)) was 97%. It also gave a remaining binding at 1 µM [3] of 100%, a remaining binding at 1 µM (TAOK2) of 100% and a remaining binding at 1 µM (PRKCE) of 23%. The remaining binding at 1 µM (AMPK-alpha1) was 100%, the remaining binding at 1 µM (DYRK1A) was 2.6% and the remaining binding at 1 µM (RIPK2) was 100%.
